*1 amine or outer side, *2 acyl side, *3 side chain or, on linkers, in order; H or OH if unused. Where a SMILES comes first, the peptide text is derived from it. Bridges are numbered along the chain shown (N, C = ends). [ ]: non-standard residue; d: D form. The star is where a group is joined. hPhe(3,5-F2-4-CF3) = N[C@@H](CCc1cc(F)c(C(F)(F)F)c(F)c1)C(=O)O; hPhe(3-Cl-4-CF3) = N[C@@H](CCc1ccc(C(F)(F)F)c(Cl)c1)C(=O)O; NPrPhe(4-CF3) = CCCN[C@@H](Cc1ccc(C(F)(F)F)cc1)C(=O)O; X45 = CCCN([C@@H](CC1CCC(F)(F)CC1)C(=O)[*:2])[*:1]; NEtPhe(4-Me) = CCN[C@@H](Cc1ccc(C)cc1)C(=O)O; NMeAbu(4,4,4-F3) = CN[C@@H](CC(F)(F)F)C(=O)O; NMeGly(cPent) = CN[C@H](C(=O)O)C1CCCC1; Pro(4,4-F2) = O=C(O)[C@@H]1CC(F)(F)CN1; X7 = C[C@@](N[*:1])(C(=O)[*:2])C1CC1; cisHyp = O=C(O)[C@@H]1C[C@H](O)CN1; αMeCha = C[C@](N)(CC1CCCCC1)C(=O)O; Hyp = O=C(O)[C@@H]1C[C@@H](O)CN1; NMeD = CN[C@@H](CC(=O)O)C(=O)O; NMeL = CN[C@@H](CC(C)C)C(=O)O; Morpholide = C1CN(*)CCO1; NMeA = CN[C@@H](C)C(=O)O; Ac5c = NC1(C(=O)O)CCCC1; Aze = O=C(O)[C@@H]1CCN1; Ethyl(2,2-F2) = FC(F)C*; Sar = CNCC(=O)O
Tests used:
[1] = molecular target: GDP-bound NRAS wild-type protein (Homo sapiens, UniProt P01111); assay: Binding to NRAS by surface plasmon resonance (SPR), KD and KD ratio to KRAS
Method in brief: (§1)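 Running buffer contained 10 µM GDP and 10 mM MgCl2 to keep RAS in the GDP state, with 4% DMSO at pH 7.4. Compounds were flowed at 100 µL/min in 75 s steps of rising concentration over captured biotin-Avi RAS at 30°C. Sensorgrams were fitted 1:1 for KD.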

[2] = molecular target: HRAS wild-type protein (Homo sapiens, UniProt P01112); assay: Binding to HRAS by surface plasmon resonance (SPR), KD and KD ratio to KRAS
Method in brief: as §1

[3] = system: human lung cancer strain NCI-H441; type: cell-based
Method in brief: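 Step one: dispense the test compound in serial DMSO dilutions. Step three: add the reagent and measure […].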

[4] = ratio of KD for GDP-bound NRAS wild-type protein to KD for KRAS
[5] = ratio of KD for HRAS wild-type protein to KD for KRAS
[6] = ratio of the KD value with respect to GDP-bound NRAS wild-type protein to the KD value with respect to KRAS
[7] = ratio of the KD value with respect to HRAS wild-type protein to the KD value with respect to KRAS

HRAS wild-type protein, sequence (P01112 whole entry): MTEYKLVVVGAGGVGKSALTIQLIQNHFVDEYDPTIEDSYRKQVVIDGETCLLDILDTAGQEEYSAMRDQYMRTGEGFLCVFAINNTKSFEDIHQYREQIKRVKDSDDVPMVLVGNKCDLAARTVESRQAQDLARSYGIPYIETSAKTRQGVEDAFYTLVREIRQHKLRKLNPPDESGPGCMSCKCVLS
GDP-bound NRAS wild-type protein, sequence (P01111 whole entry): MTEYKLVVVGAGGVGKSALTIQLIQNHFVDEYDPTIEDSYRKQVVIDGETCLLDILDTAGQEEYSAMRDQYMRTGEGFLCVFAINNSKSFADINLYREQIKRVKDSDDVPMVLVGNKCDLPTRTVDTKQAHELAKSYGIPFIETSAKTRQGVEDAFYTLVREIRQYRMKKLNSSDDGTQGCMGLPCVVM

SMILES | NRAS /KRAS [1, 4] | HRAS /KRAS [2, 5] | IC50 [3] | NRAS /KRAS [1, 6] | HRAS /KRAS [2, 7] | NRAS /KRAS ([1]; ratio of KD value for GDP-bound NRAS wild-type protein to KD value for KRAS (SPR)) | HRAS /KRAS ([2]; ratio of KD value for HRAS wild-type protein to KD value for KRAS (SPR))
CC[C@H](C)[C@@H]1NC(=O)[C@H](CC(F)(F)F)N(C)C(=O)C[C@@H](C(=O)N2CCOCC2)N(C)C(=O)[C@H](C2CCCC2)N(C)C(=O)C2(CCCC2)NC(=O)[C@@H]2CCCN2C(=O)[C@H](CCc2ccc(C(F)(F)F)c(Cl)c2)NC(=O)CN(C)C(=O)[C@H](Cc2ccc(C)cc2)N(CC)C(=O)CN(C)C(=O)CN(C)C1=O [PP0032] ([NMeAbu(4,4,4-F3)]I[Sar][Sar][NEtPhe(4-Me)][Sar][hPhe(3-Cl-4-CF3)]P[Ac5c][NMeGly(cPent)][NMeD]-Morpholide; lactam N-11) | C (A compound having a KD ratio of 0.1 or more and less than 3 is denoted as C) | C (A compound having a KD ratio of 0.1 or more and less than 3 is denoted as C) | 0.0269 µM |  |  |  | 
CCC(CC)[C@H]1C(=O)N(C)[C@H](C(=O)N(C)C)CC(=O)N(C)[C@@H](COC)C(=O)N[C@@H]([C@@H](C)CC)C(=O)N(C)CC(=O)N(C)[C@H]2C/C=C\CCN(C2=O)[C@@H](Cc2ccc(C(F)(F)F)cc2)C(=O)N(C)CC(=O)N[C@@H](CCc2ccc(Cl)c(Cl)c2)C(=O)N2CCOC[C@H]2C(=O)NC2(CC(C)(C)C2)C(=O)N1C [PP2941] | AA (a compound having 20 or more is denoted as AA) | A (a compound having 10 or more and less than 20 is denoted as A) | 0.104 µM |  |  |  | 
CCCN1C(=O)CN(C)C(=O)CN(C)C(=O)[C@H]([C@@H](C)CC)NC(=O)[C@H](CC(C)C)N(C)C(=O)C[C@@H](C(=O)N2CCOCC2)N(C)C(=O)[C@H](C2CCCC2)N(C)C(=O)C2(CCCC2)NC(=O)[C@@H]2C[C@@H](OCC(F)F)CN2C(=O)[C@H](CCc2ccc(C(F)(F)F)c(Cl)c2)NC(=O)CN(C)C(=O)[C@@H]1Cc1ccc(C(F)(F)F)cc1 [PP0246] ([NMeL]I[Sar][Sar][NPrPhe(4-CF3)][Sar][hPhe(3-Cl-4-CF3)][Hyp](Ethyl(2,2-F2))[Ac5c][NMeGly(cPent)][NMeD]-Morpholide; lactam N-11) | B (a compound having 3 or more and less than 10 is denoted as B) | C (A compound having a KD ratio of 0.1 or more and less than 3 is denoted as C) | 0.0018 µM |  |  |  | 
CCCN1C(=O)CN(C)C(=O)CN(C)C(=O)[C@H]([C@@H](C)CC)NC(=O)[C@H](CC(C)C)N(C)C(=O)C[C@@H](C(=O)N2CCOCC2)N(C)C(=O)[C@H](C2CCCC2)N(C)C(=O)C2(CCCC2)NC(=O)[C@@H]2CCCN2C(=O)[C@H](CCc2ccc(C(F)(F)F)c(Cl)c2)NC(=O)CN(C)C(=O)[C@@H]1CC1CCC(F)(F)CC1 [PP0526] ([NMeL]I[Sar][Sar][X45][Sar][hPhe(3-Cl-4-CF3)]P[Ac5c][NMeGly(cPent)][NMeD]-Morpholide; lactam N-11) |  |  | 0.0066 µM | B (a compound having 3 or more and less than 10 is denoted as B) | C (A compound having a KD ratio of 0.1 or more and less than 3 is denoted as C) |  | 
CCCN1C(=O)[C@@H]2CCN2C(=O)CN(C)C(=O)[C@H]([C@@H](C)CC)NC(=O)[C@H](CC(C)C)N(C)C(=O)C[C@@H](C(=O)N2CCOCC2)N(C)C(=O)[C@H](C2CCCC2)N(C)C(=O)[C@](C)(CC2CCCCC2)NC(=O)[C@@H]2CCCN2C(=O)[C@H](CCc2cc(F)c(C(F)(F)F)c(F)c2)NC(=O)CN(C)C(=O)[C@@H]1Cc1ccc(C(F)(F)F)cc1 [PP0796] ([NMeL]I[Sar][Aze][NPrPhe(4-CF3)][Sar][hPhe(3,5-F2-4-CF3)]P[αMeCha][NMeGly(cPent)][NMeD]-Morpholide; lactam N-11) | C (A compound having a KD ratio of 0.1 or more and less than 3 is denoted as C) | B (a compound having 3 or more and less than 10 is denoted as B) | 0.438 µM |  |  |  | 
CCCN1C(=O)CN(C)C(=O)CN(C)C(=O)[C@H]([C@@H](C)CC)NC(=O)[C@H](CC(C)C)N(C)C(=O)C[C@@H](C(=O)N(C)C)N(C)C(=O)[C@H](C2CCCC2)N(C)C(=O)[C@](C)(C2CC2)NC(=O)[C@@H]2CCCN2C(=O)[C@H](CCc2cc(F)c(C(F)(F)F)c(F)c2)NC(=O)CN(C)C(=O)[C@@H]1Cc1ccc(C(F)(F)F)cc1 [PP0734] ([NMeL]I[Sar][Sar][NPrPhe(4-CF3)][Sar][hPhe(3,5-F2-4-CF3)]P[X7][NMeGly(cPent)][NMeD]-NMe2; lactam N-11) |  |  | 0.0288 µM | B (a compound having 3 or more and less than 10 is denoted as B) | C (A compound having a KD ratio of 0.1 or more and less than 3 is denoted as C) |  | 
CCCN1C(=O)[C@@H]2CCN2C(=O)[C@H](C)N(C)C(=O)[C@H]([C@@H](C)CC)NC(=O)[C@H](CC(C)C)N(C)C(=O)C[C@@H](C(=O)N2CCOCC2)NC(=O)[C@H](C2CCCC2)N(C)C(=O)C2(CCCC2)NC(=O)[C@@H]2CC(F)(F)CN2C(=O)[C@H](CCc2ccc(C(F)(F)F)c(Cl)c2)NC(=O)CN(C)C(=O)[C@@H]1Cc1ccc(C(F)(F)F)cc1 [PP0345] ([NMeL]I[NMeA][Aze][NPrPhe(4-CF3)][Sar][hPhe(3-Cl-4-CF3)][Pro(4,4-F2)][Ac5c][NMeGly(cPent)]D-Morpholide; lactam N-11) | C (A compound having a KD ratio of 0.1 or more and less than 3 is denoted as C) | B (a compound having 3 or more and less than 10 is denoted as B) | 0.0549 µM |  |  |  | 
CCO[C@@H]1C[C@H]2C(=O)NC3(CCC3)C(=O)N(C)[C@@H](C3CCCC3)C(=O)N(C)[C@H](C(=O)N3CCOCC3)CC(=O)N(C)[C@@H](CC(C)(C)C)C(=O)N[C@@H]([C@@H](C)CC)C(=O)N(C)CC(=O)N(C)[C@H]3CCCCN(C3=O)[C@@H](Cc3ccc(C(F)(F)F)cc3)C(=O)N(C)CC(=O)N[C@@H](CCc3cc(F)c(C(F)(F)F)c(F)c3)C(=O)N2C1 [PP0714] |  |  | 0.0051 µM | C (A compound having a KD ratio of 0.1 or more and less than 3 is denoted as C) | B (a compound having 3 or more and less than 10 is denoted as B) |  | 
CCCN1C(=O)CN(C)C(=O)[C@@H]2CCN2C(=O)[C@H]([C@@H](C)CC)NC(=O)[C@H](CC(C)C)N(C)C(=O)C[C@@H](C(=O)N(C)C)N(C)C(=O)[C@H](C2CCCC2)N(C)C(=O)C2(CCCC2)NC(=O)[C@@H]2C[C@@H](OCC)CN2C(=O)[C@H](CCc2ccc(C(F)(F)F)c(Cl)c2)NC(=O)CN(C)C(=O)[C@@H]1Cc1ccc(C(F)(F)F)cc1 [PP0433] ([NMeL]I[Aze][Sar][NPrPhe(4-CF3)][Sar][hPhe(3-Cl-4-CF3)][Hyp](Et)[Ac5c][NMeGly(cPent)][NMeD]-NMe2; lactam N-11) |  |  | 0.011 µM | B (a compound having 3 or more and less than 10 is denoted as B) | B (a compound having 3 or more and less than 10 is denoted as B) |  | 
CCCN1C(=O)[C@@H]2CCN2C(=O)[C@H](C)N(C)C(=O)[C@H]([C@@H](C)CC)NC(=O)[C@H](CC(C)C)N(C)C(=O)C[C@@H](C(=O)N2CCOCC2)N(C)C(=O)[C@H](C2CCCC2)N(C)C(=O)C2(CCCC2)NC(=O)[C@@H]2C[C@H](OCC)CN2C(=O)[C@H](CCc2ccc(C(F)(F)F)c(Cl)c2)NC(=O)CN(C)C(=O)[C@@H]1Cc1ccc(C(F)(F)F)cc1 [PP0242] ([NMeL]I[NMeA][Aze][NPrPhe(4-CF3)][Sar][hPhe(3-Cl-4-CF3)][cisHyp](Et)[Ac5c][NMeGly(cPent)][NMeD]-Morpholide; lactam N-11) | C (A compound having a KD ratio of 0.1 or more and less than 3 is denoted as C) | C (A compound having a KD ratio of 0.1 or more and less than 3 is denoted as C) | 0.005 µM |  |  |  | 
CCC[C@H]1C(=O)N[C@@H]([C@@H](C)CC)C(=O)N(C)CC(=O)N(C)[C@H]2CCCCN(C2=O)[C@@H](Cc2ccc(C(F)(F)F)cc2)C(=O)N(C)CC(=O)N[C@@H](CCc2cc(F)c(C(F)(F)F)c(F)c2)C(=O)N2C[C@H](OCC)C[C@H]2C(=O)NC2(CCC2)C(=O)N(C)[C@@H](C2CCCC2)C(=O)N(C)[C@H](C(=O)N2CCOCC2)CC(=O)N1C [PP0709] |  |  | 0.001 µM | C (A compound having a KD ratio of 0.1 or more and less than 3 is denoted as C) | B (a compound having 3 or more and less than 10 is denoted as B) |  | 
CCO[C@@H]1C[C@H]2C(=O)NC3(CC(C)(C)C3)C(=O)N(C)[C@@H](C3CCCC3)C(=O)N(C)[C@H](C(=O)N(C)CC)CC(=O)N(C)[C@@H](CC(F)F)C(=O)N[C@@H]([C@@H](C)CC)C(=O)N(C)CC(=O)N(C)[C@H]3C/C=C\CCN(C3=O)[C@@H](Cc3ccc(C(F)(F)F)cc3)C(=O)N(C)CC(=O)N[C@@H](CCc3ccc(C(F)(F)F)c(OC)c3)C(=O)N2C1 [PP1655] |  |  | 0.0016 µM |  |  | A (a compound having 10 or more and less than 20 is denoted as A) | A (a compound having 10 or more and less than 20 is denoted as A)
CCO[C@@H]1C[C@H]2C(=O)NC3(CCC3)C(=O)N(C)[C@@H](C3CCCC3)C(=O)N(C)[C@H](C(=O)N(C)C)CC(=O)N(C)[C@@H](Cc3ccc(C)cc3)C(=O)N[C@@H]([C@@H](C)CC)C(=O)N(C)CC(=O)N(C)[C@H]3CCCCCN(C3=O)[C@@H](Cc3ccc(C(F)(F)F)cc3)C(=O)N(C)CC(=O)N[C@@H](CCc3cc(F)c(C(F)(F)F)c(F)c3)C(=O)N2C1 [PP0943] | B (a compound having 3 or more and less than 10 is denoted as B) | B (a compound having 3 or more and less than 10 is denoted as B) | 0.154 µM |  |  |  | 

— patent EP4603105A1, “PHARMACEUTICAL COMPOSITION CONTAINING CYCLIC COMPOUND HAVING SELECTIVE KRAS INHIBITORY EFFECT AGAINST HRAS AND NRAS” (CHUGAI SEIYAKU KABUSHIKI KAISHA, priority 2022, dated 2024)
